Test results taken from paper PMC6019266 (Biochemistry, 2017).
In brackets after ≈: the same amount, converted by molar mass. Like-named read-outs stand apart in the source and are kept apart here.

Tests used:
Rv0091 = Rv0091 (Mycobacterium tuberculosis, UniProt P9WJM3); test: Dissociation constants; assay type: biochemical
[1] = system: auto-inducer (AI-2) production; conditions: cited from earlier work
E. coli = conditions: cited from earlier work
Vibrio cholerae = conditions: cited from earlier work
[2] = system: M. smegmatis strain mc^2155; test: Disc-diffusion growth inhibition assay; assay type: cell-based, Mycobacterium smegmatis; conditions: 96 h, 37 °C
[3] = system: M. tuberculosis strain mc^26230; assay type: cell-based, Mycobacterium tuberculosis; conditions: disc diffusion, 96 h, 37 °C
H. pylori (J99) = test: Antibacterial activity assay in liquid culture; assay type: cell-based, Helicobacter pylori

Rv0091, sequence (P9WJM3 whole entry, looked up): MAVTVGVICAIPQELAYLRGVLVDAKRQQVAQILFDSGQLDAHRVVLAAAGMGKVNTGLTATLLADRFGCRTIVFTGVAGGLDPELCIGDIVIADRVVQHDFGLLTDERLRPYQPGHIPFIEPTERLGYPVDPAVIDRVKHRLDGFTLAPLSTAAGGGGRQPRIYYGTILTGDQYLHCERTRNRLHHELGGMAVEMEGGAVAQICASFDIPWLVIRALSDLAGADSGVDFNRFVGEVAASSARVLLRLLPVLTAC

CCCCSCC1CN(Cc2c[nH]c3c(N)ncnc23)C[C@H]1O (stereo partly drawn) [Compound 13]
weaker binding than HT-DADMe-ImmA (Rv0091; ratio of dissociation constants): 15 times | effect on production of auto-inducer (AI-2) [1]: inhibited production | toxicity to growth (E. coli): not toxic | toxicity to growth (Vibrio cholerae): not toxic

CCCCCCSC[C@H]1CN(Cc2c[nH]c3c(N)ncnc23)C[C@@H]1O [Compound 14]
bound tighter than MT-DADMe-ImmA (11) (Rv0091; ratio of Ki values, Table 1): 17 times | zone of clearance ([2]; 1000 μg/mL): small zone of clearance | zone of clearance ([3]; 1000 μg/mL): small zone of clearance | more potent than tetracycline (H. pylori (J99)): 6 times | IC50 (antibacterial activity; MIC50 in methods) (H. pylori (J99); 72 h, 37 °C, OD600): 0.013 ± 0.0018 µg/mL (≈ 0.0358 µM)

CSC[C@@H]1CN(Cc2c[nH]c3c(N)ncnc23)C[C@H]1O [Compound 20]
activity toward Rv0091 (Rv0091; at concentrations of ≤400 μM): no activity

NC[C@H]1O[C@H](O[C@H]2[C@H](O)[C@@H](O[C@H]3O[C@H](CO)[C@@H](O)[C@H](N)[C@H]3O)[C@H](N)C[C@@H]2N)[C@H](O)[C@@H](O)[C@@H]1O [Kanamycin, reference compound]
zone of clearance ([2]; 100 μg/mL, antibiotic control): large zones of clearance | zone of clearance ([3]; 100 μg/mL, antibiotic control): large zones of clearance
